Holding throughout (assay type): functional
Holding throughout (conditions): read-out: ED50 (the source's name)

The test system of one assay is A549. Kind of assay: Cytotoxicity against human A549 cells.
For a further assay, the system named is SK-OV-3. In words: Cytotoxicity against human SKOV3 cells.
The test system of a further assay is HCT-15. In words: Cytotoxicity against human HCT15 cells.
Another assay has as its system SK-MEL-2. In words: Cytotoxicity against human SK-MEL-2 cells.
The next assay concerns XF498. In words: Cytotoxicity against human XF498 cells.

SMILES strings stand for the structures. ≈ marks a conversion by molar mass, not a printed value. Where only a bound is given, the exact number is not on record here.

From ChEMBL document CHEMBL1156359, “New cytotoxic sesterterpenes from the sponge Sarcotragus species” (2001) come the findings set out here.

As for `CC1=C(O)/C(=C\[C@H](C)CC/C=C(/C)CCCc2coc(Cc3ccoc3)c2)OC1=O` [SARCOTIN E], the EC50 in the assay with A549 is 3.8 µg/mL (≈ 9.26 µM); with SK-OV-3, 6.24 µg/mL (≈ 15.2 µM); in the assay with HCT-15, 7.31 µg/mL (≈ 17.8 µM); in the assay with SK-MEL-2, 8.37 µg/mL (≈ 20.4 µM); in the assay with XF498 it was 5 µg/mL (≈ 12.2 µM).
Consider `CC1=C(O)/C(=C/[C@H](C)CC/C=C(/C)CCCc2coc(Cc3ccoc3)c2)OC1=O` [IRCININ 2], for which the EC50 came to 3.8 µg/mL (≈ 9.26 µM) in the assay with A549; 5.9 µg/mL (≈ 14.4 µM) in the assay with SK-OV-3; 4.74 µg/mL (≈ 11.5 µM) in the assay with HCT-15; 5.87 µg/mL (≈ 14.3 µM) in the assay with SK-MEL-2; 3.7 µg/mL (≈ 9.01 µM) in the assay on XF498.
Turning to `CC1=C(O)/C(=C/[C@H](C)CCC/C(C)=C/CCc2coc(Cc3ccoc3)c2)OC1=O` [IRCININ 1], the EC50 in the assay with A549 was 3.72 µg/mL (≈ 9.06 µM); in the assay on SK-OV-3, 6.55 µg/mL (≈ 16 µM); in the assay with HCT-15, 6.91 µg/mL (≈ 16.8 µM); in the assay with SK-MEL-2 it was 8.95 µg/mL (≈ 21.8 µM); with XF498, 5.42 µg/mL (≈ 13.2 µM).
With `COc1cccc2c1C(=O)c1c(O)c3c(c(O)c1C2=O)C[C@@](O)(C(=O)CO)C[C@@H]3O[C@H]1C[C@H](N)[C@H](O)[C@H](C)O1` [DOXORUBICIN], the EC50 in the assay with A549 is 0.02 µg/mL (≈ 0.0368 µM); with SK-OV-3, 0.11 µg/mL (≈ 0.202 µM); in the assay on HCT-15, 0.04 µg/mL (≈ 0.0736 µM); with SK-MEL-2, 0.02 µg/mL (≈ 0.0368 µM); with XF498, 0.08 µg/mL (≈ 0.147 µM).
Regarding `CC1=C(O)[C@@H](C/C(C)=C\CCC(C)/C=C/C=C(\C)CCCc2ccoc2)OC1=O` (stereo not given in full) [SARCOTIN A], the EC50 in the assay on A549 is 29.7 µg/mL (≈ 74.5 µM); in the assay with SK-OV-3, 22.1 µg/mL (≈ 55.4 µM); with HCT-15, 27.2 µg/mL (≈ 68.2 µM); in the assay with SK-MEL-2 it was more than 30 µg/mL; with XF498, 24.8 µg/mL (≈ 62.3 µM).
The corresponding values for `CC1=C(O)[C@@H](C/C(C)=C\CC/C(C)=C/CC/C(C)=C/CCc2ccoc2)OC1=O` are 16.9 µg/mL (≈ 42.4 µM), 26.8 µg/mL (≈ 67.3 µM), 27.5 µg/mL (≈ 69 µM), 16.3 µg/mL (≈ 40.9 µM) and 20.4 µg/mL (≈ 51.2 µM).
`CC1=C(O)[C@H](C/C(C)=C\CCC(C)/C=C\C=C(\C)CCCc2ccoc2)OC1=O` (stereo not given in full) [SARCOTIN B]: the EC50 with A549 is 10.1 µg/mL (≈ 25.3 µM); with SK-OV-3, 11.3 µg/mL (≈ 28.4 µM); in the assay with HCT-15, 8.95 µg/mL (≈ 22.5 µM); in the assay on SK-MEL-2, 7.78 µg/mL (≈ 19.5 µM); in the assay with XF498, 8.89 µg/mL (≈ 22.3 µM).
As to `CC1=C(O)/C(=C\[C@H](C)CCC/C(C)=C/CCc2coc(Cc3ccoc3)c2)OC1=O` [SARCOTIN D], the EC50 in the assay with A549 is 4.98 µg/mL (≈ 12.1 µM); in the assay with SK-OV-3, 9.39 µg/mL (≈ 22.9 µM); in the assay with HCT-15 it was 9.82 µg/mL (≈ 23.9 µM); with SK-MEL-2 it was 10.2 µg/mL (≈ 24.8 µM); in the assay on XF498, 6.52 µg/mL (≈ 15.9 µM).
